Results from ChEMBL document CHEMBL3507680, “University of Dundee, Gates Library screen for HepG2 cell viability”.

Test: Human HepG2 cell viability assay in 384 well format
Assay type: toxicity, cell-based
Design: dose 125 nL, time 70.5 hour; cytotoxicity at 70.5 h: concentration not given beside the values
Details: HepG2 cells, read-out: Inhibition

Compound | cytotoxicity at 70.5 h [%]
Cc1nc(N(C)C)nc2c1COCC21CCN(C(=O)C2CC2)C1 (stereo not given) | -3.72
CN(C)c1ncc(-c2cc(C(=O)NC(C)(C)CO)n(CC3CC3)c2)cn1 | -12.5
CCOCC1CN(Cc2ccc3c(c2)OCO3)Cc2ncn(C)c21 (stereo not given) | -10.5
CO[C@@H]1CCN(c2ncc(F)cn2)[C@H]1Cc1cnn(C)c1 | -11.6
O=C([C@H]1C[C@H]2[C@H](CCN2Cc2cccs2)O1)N1CCOCC1 | -16.9
CC(C)NC(=O)N1CCC2(CC(=O)N(c3ccsc3)C2)C1 (stereo not given) | -14.3
CC(C)CCC(=O)N1CC[C@@H]2[C@H](CC1)N(S(C)(=O)=O)CCS2(=O)=O | -10.2
O=C([C@H]1CCCO1)N1CCc2ncnc(C3CC3)c2CC1 | -11.8
CC(C)Nc1ncnc2c1CCN(Cc1ccoc1)CC2 | -12.6
CN(C)Cc1nn(C)c2c1CCN(C(=O)c1cccnc1)C2 | -20.7
Cc1cccc(C(=O)N2CCc3c(CN(C)C)nn(C)c3C2)n1 | -14.3
COc1cc(N2CC[C@@H](OC)[C@@H]2Cc2cnn(C)c2)ncn1 | 33.8
O=C(c1cscn1)N1C[C@@H](Oc2cccnc2)[C@H]2OCCC[C@H]21 | 26.4
COc1cc(N2CC[C@@H]3O[C@H](C(=O)NCC4CC4)C[C@@H]32)ncn1 | 16.5
COc1cc(N2CC[C@@H]3O[C@@H](C(=O)NCCN(C)C)C[C@@H]32)ncn1 | -9.68
O=C(NCC1CCCO1)c1c(-n2cnnn2)sc2c1CCC2 (stereo not given) | -18.6
CC(C)CCn1[nH]c(CNc2ccccc2)nc1=O | -10.8
CC1(C)Cc2ccccc2-c2nc(NCCO)[nH]c(=O)c21 | -8.18
CN1CCc2c(C#N)c(NCc3ccco3)n3cnnc3c2C1 | -7.42
O=C(Cn1ccc2ccc(Br)cc21)NCc1ccc(C(=O)O)cc1 | -6.34
O=C(c1cc(-n2cnnn2)ccc1Cl)N1CCC2(CC1)OCCO2 | -7.22
Cc1cc(O)c(OCC(=O)/N=c2\[nH]cc(C)s2)cn1 | -21
COCc1n[nH]/c(=N/C(=O)COc2cnc(C)cc2O)s1 | -9.66
COc1ccc(-c2n[nH]cc2C2SCC(=O)Nc3[nH]ncc32)cc1 (stereo not given) | -9.36
CC(=O)c1cccc(NC(=O)Cn2cc(I)cn2)c1 | -9.34
O=C(CCn1ccc2cc(Br)ccc21)NCc1ccc(C(=O)O)cc1 | -5.77
CC(C)CCn1c(=O)nc2n1C(=O)N(c1ccc(F)cc1)C2 | 22.3

Compound | cytotoxicity at 70.5 h [%]
CC(C)Oc1ccccc1C1CC(=O)Nc2c1cnn2C (stereo not given) | -11.9
CCNC(=O)c1ccc2c(c1)nc1n2CCN(Cc2ccco2)C1 | -16
Cc1ccccc1N1CC2(CCN(S(=O)(=O)C3CC3)C2)CC1=O (stereo not given) | -14.8
CN1[C@@H](C(=O)NCC2CC2)C[C@@H]2CN(Cc3ccco3)C[C@@H]21 | -12.2
Cc1ccccc1N1CC2(CCN(S(=O)(=O)c3cccs3)C2)CC1=O (stereo not given) | 14
CCN1C(=O)CCCC12CCCN(C(=O)c1cnccn1)C2 (stereo not given) | -5.91
Cc1cccc(CN2C[C@@H]3CN(C(=O)[C@H]4CCCO4)C[C@@H]3C2=O)c1 | -5.16
Cc1noc(C)c1CN1CCCC2(CCN(C(=O)CC3CC3)C2)C1 (stereo not given) | 41.6
COCCN1C(=O)CCC12CCN(C(=O)CC1CC1)CC2 | 35.3
Cc1cnc(N2CCC3(CCN(CC4CC4)C3=O)CC2)nc1 | -9.16
C[C@H]1CN(Cc2cnn(C)c2)C[C@@]12CCN(Cc1cccnc1)C2=O | -7.75
COCCC(=O)N1CCCC2(CCC(=O)N2CCOC)CC1 (stereo not given) | -7.23
COc1cccc(CN2CCCC3(CCN(C(=O)c4ccco4)C3)C2)c1 (stereo not given) | -8.94
COc1cccc(CN2CCCC3(CCN(C(=O)[C@H]4CCCO4)C3)C2)c1 (stereo not given in full) | -2.99
COCCCN1CC2(CCCCN2C(=O)c2ccsc2)CC1=O (stereo not given) | 8.24
CS(=O)(=O)N1CCCC12CCCN(S(=O)(=O)c1ccc(F)cc1)C2 (stereo not given) | -8.04
c1cncc(COCC2CN(Cc3ccco3)Cc3ccnn3C2)c1 (stereo not given) | 0.213
O=C(NCc1cnc2n1CCN(c1ncc(F)cn1)CC2)C1CCC1 | -9.1
Cc1occc1C(=O)N1CCc2ncnc(-c3cnn(C)c3)c2CC1 | -8.07
Cn1cccc1C(=O)N1CCc2c(CNS(C)(=O)=O)cncc2C1 | -18.4
CCOc1ccccc1C1CCCN1 (stereo not given) | 1.15
CCCN1C(=O)CC2(CCCNC2)C1=O (stereo not given) | -14.9
Cc1ccc(NCc2cncc3c2CCN(Cc2ccccn2)C3)nn1 | -13.4
NCC1[C@H]2CN(CCc3ccccc3)C[C@@H]12 (stereo not given in full) | 43.3
Cn1cc(CN2C[C@H]3CCC[C@@H](CNc4ncccn4)[C@H]3C2)cn1 | -3.23
Cn1ccnc1NC[C@@H]1CCC[C@@H]2CN(Cc3cccnc3)C[C@@H]21 | 14.5
c1ccc(NC[C@@H]2CCC[C@@H]3CN(Cc4cccnc4)C[C@@H]32)nc1 | -5.9

Compound | cytotoxicity at 70.5 h [%]
CS(=O)(=O)N1CCO[C@H]2[C@@H](Oc3ncccc3F)CC[C@@H]21 | -5.41
O=C([C@H]1CC[C@@H]2[C@@H](CCN2Cc2nccs2)O1)N1CCOCC1 | -5.21
O=C(NCC1CCOCC1)[C@@H]1C[C@@H]2[C@@H](CCN2Cc2nccs2)O1 | -12.1
O=C(c1ccnnc1)N1C[C@H](Oc2ccccn2)[C@H]2OCCC[C@H]21 | -8.72
O=C(N[C@@H]1CN(Cc2ccoc2)[C@@H]2CCCO[C@@H]21)C1CC1 | -12.9
CC1=N[C@@]2(CC[C@@H]3CN(Cc4ccccc4)C[C@@H]32)C(=O)N1CC1CC1 | -21.6
O=C(N1CCOCC1)N1CCc2ncnc(NC3CCC3)c2CC1 | -14.5
CC(C)NC(=O)N1CCOC2(CCCN(c3ncccc3F)C2)C1 (stereo not given) | -13.6
CCN1CCn2c(C)cnc2C12CCN(C(=O)NCC(C)C)CC2 | -11.3
CN1CCS(=O)(=O)[C@@H]2CCN(C(=O)CC(C)(C)C)CC[C@@H]21 | -3.84
Cc1nc(CN2CC[C@@H]3O[C@@H](C(=O)N4CCOCC4)C[C@@H]32)cs1 | -9.93
CCN1CCn2c(C)cnc2C12CCN(C(=O)NC)CC2 | -6.2
CN(C)C(=O)N[C@H]1CN(Cc2ccc3c(c2)OCO3)[C@@H]2CCCO[C@H]12 | -12.8
COCC1Cn2nnc(-c3cnn(C)c3)c2CN1Cc1ccoc1 (stereo not given) | -8.84
CC(C)NC(=O)N1Cc2nccn2CC(COc2cccnc2)C1 (stereo not given) | 9.72
COc1cc(N2CC[C@H]3O[C@@H](C(=O)NC4CCCC4)CC[C@H]32)ncn1 | -9.02
O=C(NCC1CC1)C1CCC2(CCN(C(=O)c3ccccn3)CC2)O1 (stereo not given) | 20.3
O=C1CCC2(CCCN(CCc3ccccc3)C2)N1Cc1cccnc1 (stereo not given) | -25
CC(C)NC(=O)CC1COC2(CCN(Cc3ccccc3)CC2)C1 (stereo not given) | -14.2
COc1ccc(CN2CCC3(CC2)CCN(CC2CC2)C3=O)cc1 | -14.4
O=C1C[C@H]2[C@@H](CCN2C(=O)Cc2cccs2)N1Cc1cccnc1 | -17
Cc1cccc(CN2CCc3nnc(CO)n3CC2)n1 | -3.1
CCN1CCC2(C=C(C(=O)NC3CC3)c3ccccc32)CC1 | -3.64
CNC(=O)CN1CCCC12CCN(C(=O)c1ccsc1)CC2 | -6.13
O=C1N(CC2CC2)CCC12CCN(c1ncccn1)CC2 | -3.31
O=C1CCC2(CCN(Cc3ccc(F)cc3)CC2)N1Cc1ccccc1 | -5.78
NC(=O)N1CCC2(CC1)CN(Cc1cccnc1)C(=O)CO2 | -7.6

Compound | cytotoxicity at 70.5 h [%]
CCn1nnc2c1C(COC)CN(Cc1ccsc1)C2 (stereo not given) | -0.304
CN(C)C[C@H]1OC[C@@H]2CCN(C(=O)c3ccco3)C[C@@H]21 | -1.52
COCCO[C@@H]1CCN(Cc2csc(C)n2)[C@H]1Cc1ccccc1 | -8.53
Cc1ccc2c(n1)N(CCn1cccn1)CCN(C(=O)CC1CC1)C2 | -15.3
COC[C@@H]1CC[C@H]2[C@H](CCN2C(=O)c2ccncc2F)O1 | -7.3
Cc1ccc2c(n1)N(CCn1cccn1)CCN(C(=O)NC1CC1)C2 | -10.7
Cc1nc(COC[C@]23COC[C@H]2CN(Cc2ccoc2)C3)cs1 | -9.47
Cc1ccoc1C(=O)N1CCOCC2(CCN(c3ncccn3)C2)C1 (stereo not given) | -11.7
CN(C)C[C@H]1OC[C@@H]2CCN(C(=O)c3cccn3C)C[C@@H]21 | -7.55
COCCN1CCn2c(CN(C)C(C)C)cnc2C1 | -7.59
CCN1CCn2c(C)cnc2C12CCN(C(=O)c1ccco1)CC2 | -4.85
CCN1CCn2c(C)cnc2C12CCN(C(=O)COC)CC2 | 25
CCN1CCn2c(C)cnc2C12CCN(C(=O)Cc1ccccc1)CC2 | 24.6
COc1ccc(CN2CCO[C@H]3[C@H](OCCN4CCCC4)CC[C@@H]32)cc1 | -9.88
COCC1c2c(cnn2CC2CC2)CCN1Cc1ccsc1 (stereo not given) | -20.6
CNC(=O)[C@@H]1C[C@H]2CN(Cc3ccco3)C[C@H]2N1C | -15.3
CC(C)NC(=O)N1CCN(Cc2ccccn2)CC2(CC(=O)N(C)C2)C1 (stereo not given) | 22.3
CN(C)CCN1CCCC12CCN(C(=O)c1cccnc1)CC2 | -3.11
CN1[C@H](CN2CCCC2)C[C@@H]2CN(C(=O)c3cccn3C)CC[C@@H]21 | 1.34
COCCN1CCc2cc(C(=O)N(C)C)c(NCC3CC3)nc2CC1 | -4.26
O=C1CC2(CCN(CC3CC3)C2)CN1c1cccnc1 (stereo not given) | -9.06
c1cncc(CN2CCO[C@H]3[C@H](OCCN4CCCC4)CC[C@@H]32)c1 | -8.38
Cc1cccc(CN2C(=O)C[C@H]3[C@@H]2CCN3Cc2ccccn2)n1 | 23.7
Cc1ccc(N(CC(=O)c2ccc(Br)cc2)C2=NCCCCC2)cc1 | 16.7
